Results published in patent US9890147B2 (BAYER PHARMA AKTIENGESELLSCHAFT, priority 2012, dated 2018).

Key:
B16F10 cells = experiment: Cell proliferation assay (alamarBlue), B16F10; format: cell-based; conditions: Mus musculus, B16-F10, 96 hours incubation, inhibition of cell proliferation
Summary of the method: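 alamarBlue fluorescence (ex 530/em 590 nm) read after overnight seeding at 300-500 cells/well in DMEM + 10% FCS, then after 96 h at 37 °C with compound at 1E-8 to 1E-5 M. Baseline subtracted from endpoint, compared with buffer-treated cells; IC50 = concentration giving 50% proliferation inhibition.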

Caov-3 cells = experiment: Cell proliferation assay (alamarBlue), Caov-3; format: cell-based; conditions: Homo sapiens; inhibition of cell proliferation, Caov-3 (ovarian carcinoma), 96 hours
Summary of the method: (§1)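 Caov-3 (MEM Earle's, 10% FCS, 2000 cells/well) and MDA-MB-231 (DMEM/Ham's F12, 10% FCS, 4000 cells/well) were treated after overnight attachment with 1E-5 to 1E-8 M compound. Caov-3 exposure was 96 h. alamarBlue fluorescence (ex 530, em 590 nm) was read after background subtraction of day-0 values, and IC50 calculated versus buffer-treated cells.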

BRD4 (BD1) = biological target: T1, BRD4 (BD1) (Homo sapiens, UniProt O60885); experiment: Binding assay BRD4/acetylated peptide H4 (TR-FRET protein-protein interaction assay)
T1 construct: with relatively long constructs also being possible, preferably amino acids 44-168; made in house; host or cells: E. coli
Summary of the method: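 Displacement of biotin-Ac-H4 peptide from His6-tagged BRD4(BD1), final usually 10 nM, read as Eu-streptavidin to anti-His-XL665 TR-FRET (665/620 nm). Compounds tested at 11 doses up to 20 μM in duplicate, pH 7.5 HEPES, 22 °C then 4 °C incubation; IC50 by 4-parameter regression.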

MOLM-13 cells = experiment: Cell proliferation assay (alamarBlue), MOLM-13; format: cell-based; conditions: Homo sapiens, 96 hours incubation, inhibition of cell proliferation
Summary of the method: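 IC50 = concentration giving 50% growth inhibition relative to buffer-treated cells, after subtracting baseline fluorescence taken before dosing. Compound applied at 1E-5 to 1E-8 M for 96 h at 37 °C in RPMI1640 with 10% FCS; alamarBlue signal at 530/590 nm.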

LOX-IMVI cells = experiment: Cell proliferation assay (alamarBlue), LOX-IMVI; format: cell-based; conditions: Homo sapiens, 72 hours incubation, inhibition of cell proliferation
Summary of the method: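 alamarBlue fluorescence (530 nm excitation, 590 nm emission) measured before dosing and after 72 h at 37° C exposure to 1E-5–1E-8 M compound; 1000 cells/well plated in RPMI1640/10% FCS the night before. IC50 from baseline-corrected signal relative to buffer-treated wells.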

KMS-12-PE cells = experiment: Cell proliferation assay (alamarBlue), KMS-12-PE; format: cell-based; conditions: Homo sapiens, 120 hours incubation, inhibition of cell proliferation
Summary of the method: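 KMS-12-PE myeloma cells in RPMI1640 with 20% FCS were exposed to compound (1E-5 to 1E-8 M) for 120 h at 37° C. AlamarBlue fluorescence (ex 530, em 590 nm) read before and after treatment; the difference versus buffer-treated cells gave IC50.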

LAPC-4 cells = experiment: Cell proliferation assay (alamarBlue), LAPC-4; format: cell-based; conditions: Homo sapiens, LAPC4; inhibition of cell proliferation, LAPC-4 (prostate cancer), 1 nM methyltrienolone, 168 hours
MDA-MB-231 cells = experiment: Cell proliferation assay (alamarBlue), MDA-MB-231; format: cell-based; conditions: Homo sapiens; inhibition of cell proliferation, MDA-MB-231 (breast carcinoma), 96 hours
Summary of the method: as §1

MOLP-8 cells = experiment: Cell proliferation assay (alamarBlue), MOLP-8; format: cell-based; conditions: Homo sapiens, 120 hours incubation, inhibition of cell proliferation
Summary of the method: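 MOLP-8 cells in RPMI1640 with 20% FCS, 4000 cells/well, treated overnight after seeding with substance at 1E-5 to 1E-8 M for 120 h at 37° C. Viability read by alamarBlue fluorescence (ex 530, em 590); pre-treatment values subtracted, compared with buffer-only cells to derive IC50.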

MV4-11 cells = experiment: Cell proliferation assay (alamarBlue), MV4-11; format: cell-based; conditions: Homo sapiens, 72 hours incubation, inhibition of cell proliferation
Summary of the method: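 Cells seeded at 5000/well in RPMI1640 + 10% FCS, incubated overnight at 37° C, then treated with compound (1E-5 to 1E-8 M) for 72 h at 37° C. Viability by alamarBlue fluorescence (ex 530/em 590 nm); pre-treatment readings subtracted, IC50 derived versus buffer-treated cells.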

Row | Compound | IC50 (B16F10 cells) [nM] | IC50 (Caov-3 cells) [nM] | IC50 (BRD4 (BD1)) [nM] | IC50 (MOLM-13 cells) [nM] | IC50 (LOX-IMVI cells) [nM] | IC50 (KMS-12-PE cells) [nM] | IC50 (LAPC-4 cells) [nM] | IC50 (MDA-MB-231 cells) [nM] | IC50 (MOLP-8 cells) [nM] | IC50 (MV4-11 cells) [nM]
1 | CNC(=O)N1N=C(c2ccc(N3CCN(C)CC3)cc2)c2cc(OC)c(OC)cc2C[C@@H]1C [Example 127.1, (4S)-7,8-Dimethoxy-N,4-dimethyl-1-[4-(4-methylpiperazin-1-yl)phenyl]-4,5-dihydro-3H-2,3-benzodiazepine-3-carboxamide] | 100 | 170 | 50 | 110 | 290 | 90 | 40 | 130 | 60 | 70
2 | CNC(=O)N1N=C(c2ccc(N3CCC(O)CC3)cc2)c2cc(OC)c(OC)cc2C[C@@H]1C [Example 130.1, (4S)-1-[4-(4-hydroxypiperidin-1-yl)phenyl]-7,8-dimethoxy-N,4-dimethyl-4,5-dihydro-3H-2,3-benzodiazepine-3-carboxamide] | 100 | 3 | 20 | 70 | 190 | 70 | 50 | 140 | 50 | 50
